Source: PubChem BioAssay AID1259408 (Genetic Toxicology Data Bank (GENE-TOX), 2018)
Activity calls are given as the source filed them. The rule behind the calls is not given here.

System: GENE-TOX genotoxicity assays, various organisms and cells
Experiment: GENE-TOX mutagenicity studies
Conditions: for call: Assay Type: In vivo carcinogenicity studies
[1] = Species/Cell Type: Salmonella typhimurium (one or more of the five standard strains: TA98, TA100, TA1535, TA1537, and TA1538), Assay Type: Histidine reverse gene mutation, Ames assay, Assay Code: SAL+*, Activation: With metabolic activation, Evaluation Type: Evaluation A (Pre-1980)
[2] = Species/Cell Type: Chinese hamster lung (V79) cells, Assay Type: Forward gene mutation at the HPRT or ouabain locus, Assay Code: V79+, Evaluation Type: Evaluation A (Pre-1980)
[3] = Species/Cell Type: Nonhuman, Assay Code: CCG+, Evaluation Type: Evaluation A (Pre-1980)
[4] = Species/Cell Type: Bacillus subtilis (H17 vs M45), Assay Type: Rec-assay, spot test, DNA effects (bacterial DNA repair), Assay Code: REW+, Evaluation Type: Evaluation A (Pre-1980)
[5] = Species/Cell Type: Mouse, Sex: Male, Assay Type: Sperm morphology, Assay Code: SPI-, Evaluation Type: Evaluation A (Pre-1980)
[6] = Species/Cell Type: Salmonella typhimurium (one or more of the five standard strains: TA98, TA100, TA1535, TA1537, and TA1538), Assay Type: Histidine reverse gene mutation, Ames assay, Assay Code: SAL+, Evaluation Type: Evaluation A (Pre-1980)
[7] = Species/Cell Type: Syrian hamster embryo (SA7/SHE) cells, Assay Type: Cell transformation, viral enhanced, Assay Code: CT7-, Evaluation Type: Evaluation A (Pre-1980)

## CN(C)CCN(Cc1cccs1)c1ccccn1
Species/Cell Type: Chinese hamster ovary (CHO) cells, Assay Type: Forward gene mutation at the HPRT locus, Assay Code: CHOT, Evaluation Type: Evaluation B (Post-1980)
  mutagenic call: no conclusion
Species/Cell Type: Nonhuman, Assay Type: Sister-chromatid exchange (SCE) in vitro, Assay Code: SC2-, Evaluation Type: Evaluation B (Post-1980)
  mutagenic call: inactive; negative
Species/Cell Type: Nonhuman, Assay Type: Sister-chromatid exchange (SCE) in vivo, Assay Code: SC3-, Evaluation Type: Evaluation B (Post-1980)
  mutagenic call: inactive; negative

## Cc1ccccc1N=Nc1c(N)ccc2ccccc12
Species/Cell Type: Bacillus subtilis (H17 vs M45T), Assay Type: Rec-assay, spot test, DNA effects (bacterial DNA repair), Assay Code: REXT, Evaluation Type: Evaluation A (Pre-1980)
  mutagenic call: no conclusion

## Nc1cccc(O)c1
Species/Cell Type: Mammalian polychromatic erythrocytes, Assay Type: Micronucleus test, chromosome aberrations, Assay Code: MNTT, Evaluation Type: Evaluation A (Pre-1980)
  mutagenic call: no conclusion
Species/Cell Type: Neurospora crassa, Assay Type: Aneuploidy, chromosome aberrations, Assay Code: NEN-, Evaluation Type: Evaluation A (Pre-1980)
  mutagenic call: inactive; negative

## O[C@@H]1C=Cc2c(ccc3cc4c(ccc5ccccc54)cc23)[C@H]1O
Species/Cell Type: Nonhuman, Assay Code: CCG+L, Evaluation Type: Evaluation A (Pre-1980)
  call: active; positive
Species/Cell Type: Nonhuman, Assay Type: Sister-chromatid exchange (SCE) in vitro, Assay Code: SC2+D, Dose Response: With dose response, Evaluation Type: Evaluation B (Post-1980)
  mutagenic call: active; positive
[1]
  mutagenic call: active; positive

## O=NN1CCCC1
[2]
  mutagenic call: active; positive
[3]
  call: active; positive
Species/Cell Type: Nonhuman, Assay Type: Sister-chromatid exchange (SCE) in vivo, Assay Code: SC3+, Evaluation Type: Evaluation B (Post-1980)
  mutagenic call: active; positive
Species/Cell Type: Rat primary hepatocytes, Assay Type: Unscheduled DNA synthesis (UDS) in vitro, DNA effects, Assay Code: UDP+D, Dose Response: With dose response, Evaluation Type: Evaluation A (Pre-1980)
  mutagenic call: active; positive
[1]
  mutagenic call: active; positive

## CCOC(=O)COc1ccc(Cl)cc1CCl (tested in a mixture with another compound)
Species/Cell Type: Saccharomyces cerevisiae, Assay Type: Reverse gene mutation, Assay Code: YERT, Evaluation Type: Evaluation A (Pre-1980)
  mutagenic call: no conclusion

## [O]=[V](=[O])[OH]
[4]
  mutagenic call: active; positive

## O=NN1CCOCC1
[2]
  mutagenic call: active; positive
Species/Cell Type: Drosophila melanogaster, Assay Type: Sex-linked recessive lethal gene mutation, Assay Code: SRL+, Evaluation Type: Evaluation A (Pre-1980)
  mutagenic call: active; positive
Species/Cell Type: Drosophila melanogaster, Sex: Male, Assay Type: Heritable translocation test, chromosome aberrations, Assay Code: DHTT, Evaluation Type: Evaluation A (Pre-1980)
  mutagenic call: no conclusion
Species/Cell Type: Human lymphocytes or leukocytes, Assay Type: Chromosome aberrations in vivo, Assay Code: CY8+, Evaluation Type: Evaluation A (Pre-1980)
  mutagenic call: active; positive
Species/Cell Type: Mammalian polychromatic erythrocytes, Assay Type: Micronucleus test, chromosome aberrations, Assay Code: MNT+, Evaluation Type: Evaluation A (Pre-1980)
  mutagenic call: active; positive
[5]
  mutagenic call: inactive; negative
Species/Cell Type: Nonhuman lymphocytes or leukocytes, Assay Type: Chromosome aberrations in vivo, Assay Code: CY%+, Evaluation Type: Evaluation A (Pre-1980)
  mutagenic call: active; positive
[3]
  call: active; positive
Species/Cell Type: Nonhuman, Assay Type: Sister-chromatid exchange (SCE) in vitro, Assay Code: SC2+D*, Activation: With metabolic activation, Dose Response: With dose response, Evaluation Type: Evaluation B (Post-1980)
  mutagenic call: active; positive
Species/Cell Type: Nonhuman, Assay Type: Sister-chromatid exchange (SCE) in vivo, Assay Code: SC3+D, Dose Response: With dose response, Evaluation Type: Evaluation B (Post-1980)
  mutagenic call: active; positive
Species/Cell Type: Rat primary hepatocytes, Assay Type: Unscheduled DNA synthesis (UDS) in vitro, DNA effects, Assay Code: UDP+, Evaluation Type: Evaluation A (Pre-1980)
  mutagenic call: active; positive
Species/Cell Type: Salmonella typhimurium (one or more of the five standard strains: TA98, TA100, TA1535, TA1537, and TA1538), Assay Type: Histidine reverse gene mutation, Ames assay, Assay Code: SALT, Evaluation Type: Evaluation A (Pre-1980)
  mutagenic call: no conclusion
Species/Cell Type: Salmonella typhimurium, Assay Type: Forward and reverse gene mutation, host-mediated assay, Assay Code: HMA+, Evaluation Type: Evaluation A (Pre-1980)
  mutagenic call: active; positive

## Nc1cc(N)c(N=Nc2ccc(S(=O)(=O)O)cc2)cc1N=Nc1ccc(S(=O)(=O)O)cc1 (tested in a mixture with another compound)
[6]
  mutagenic call: active; positive

## Cl
[4]
  mutagenic call: active; positive
Species/Cell Type: Bacillus subtilis (H17 vs M45), Assay Type: Rec-assay, spot test, DNA effects (bacterial DNA repair), Assay Code: REW-, Evaluation Type: Evaluation A (Pre-1980)
  mutagenic call: inactive; negative
[7]
  mutagenic call: inactive; negative

## CC[n+]1c(-c2ccccc2)c2cc(N)ccc2c2ccc(N)cc21
Species/Cell Type: Chinese hamster ovary (CHO) cells, Assay Type: Forward gene mutation at the HPRT locus, Assay Code: CHO+, Evaluation Type: Evaluation B (Post-1980)
  mutagenic call: active; positive
Species/Cell Type: Escherichia coli polA (W3119 vs P3478), Assay Type: Rec-assay, DNA effects (bacterial DNA repair), Assay Code: RE1+, Evaluation Type: Evaluation A (Pre-1980)
  mutagenic call: active; positive
Species/Cell Type: Mammalian cell culture, nonhuman, Assay Type: Micronucleus test in vitro, chromosome aberrations, Assay Code: MN&+, Evaluation Type: Evaluation A (Pre-1980)
  mutagenic call: active; positive
Species/Cell Type: Mammalian germ cells, Sex: Male, Assay Type: Chromosome aberrations in vivo, Assay Code: CY9T, Evaluation Type: Evaluation A (Pre-1980)
  mutagenic call: no conclusion
[5]
  mutagenic call: inactive; negative
Species/Cell Type: Saccharomyces cerevisiae, Assay Type: Mitotic recombination or gene conversion, Assay Code: YEC-, Evaluation Type: Evaluation A (Pre-1980)
  mutagenic call: inactive; negative
Species/Cell Type: Saccharomyces cerevisiae, Assay Type: Mitotic recombination or gene conversion, Assay Code: YEH-, Evaluation Type: Evaluation A (Pre-1980)
  mutagenic call: inactive; negative
Species/Cell Type: Saccharomyces cerevisiae, Assay Type: Reverse gene mutation, Assay Code: YER-, Evaluation Type: Evaluation A (Pre-1980)
  mutagenic call: inactive; negative
[6]
  mutagenic call: active; positive
[7]
  mutagenic call: inactive; negative

## CCCCCC(=O)N(C)N=O
Species/Cell Type: Saccharomyces cerevisiae, Assay Type: Mitotic recombination or gene conversion, Assay Code: YEC+, Evaluation Type: Evaluation A (Pre-1980)
  mutagenic call: active; positive

## CCOC(=O)CNC(=O)C=[N+]=[N-]
[6]
  mutagenic call: active; positive
